Results from patent US20240150293A1, “SPIROCYCLOHEXANE DERIVATIVES, PHARMACEUTICAL COMPOSITIONS CONTAINING THEM AND THEIR USES AS ANTI-APOPTOTIC INHIBITORS” (LES LABORATOIRES SERVIER, priority 2021, published 2024).
Like-named read-outs stand apart in the source and are kept apart here.

Key:
[1] = target: Cy5-labelled Mcl1 (amino acids 171-321) C286S protein (UniProtKB Q07820) (Homo sapiens (Human), UniProt Q07820, C286S); assay: Inhibition of Mcl-1 by the fluorescence quenching assay (Example A, Method B); type: binding
Cy5-labelled Mcl1 (amino acids 171-321) C286S protein, sequence (Q07820 171-321 C286S): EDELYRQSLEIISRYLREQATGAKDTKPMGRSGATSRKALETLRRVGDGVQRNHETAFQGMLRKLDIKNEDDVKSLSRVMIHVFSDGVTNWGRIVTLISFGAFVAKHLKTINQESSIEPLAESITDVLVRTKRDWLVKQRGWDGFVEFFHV
Source text: Fluorescence quenching assay measures the change fluorescence intensity of C-terminally Cy5-labelled Mcl1 (amino acids 171-321) C286S protein (UniProtKB® primary accession number Q07820) having an amino acid sequence:
which is linked at the C-terminus to the amino acid X which corresponds to a cysteine labelled on the sulfur with sulpho-Cyanine5 from Lumiprobe GmbH catalogue number 13380, upon binding of a C-terminally labelled peptide derived from PUMA (UniProtKB® primary accession number Q9BXH1) having an amino acid sequence:
which is linked at the C-terminus to the amino acid X′, where X′ is cysteine labelled on the sulfur with TQ5WS from AAT Bioquest catalogue number 2079.
The addition of a compound which binds competitively to the same site as the peptide will result in an increase in the fluorescence intensity of the protein due to displacement of the fluorescence quencher.
An 11-point serial dilution of each compound was prepared in DMSO, the final buffer conditions were 10 mM 4-(2-hydroxyethyl)-1-piperazineethanesulfonic acid [HEPES], 150 mM NaCl, 0.05% Tween 20, pH 7.4 and 5% DMSO. The final protein concentration in the assay was 1 nM with the peptide present at 10, 20 or 400 nM. The experiments were incubated for 2 hours at room temperature before fluorescence intensity was measured on a Biotek SynergyNeo plate reader (Excitation 620 nm, emission 680 nm). The dose response curves were plotted with XL-Fit software using a 4-Parameter Logistic Model (Sigmoidal DoseResponse Model) and the inhibitory concentrations that gave a 50% increase in fluorescence intensity was determined (IC50). The Ki values were determined from the IC50 values according to Cer et al, Nucleic Acids Res, 2009, 37 (WebServer issue): W441-W445. Inhibition constants (Ki) are determined from complete binding inhibition curves (cKi) or from estimated from incomplete binding inhibition curves (eKi) in most cases due to low activity.

[2] = test system: H929 multiple myeloma tumor line; assay: In vitro cytotoxicity, MTT assay (Example B, Method A); type: cell-based; settings: H929 cells, 48 hours exposure, read-out: C50
Description: The cytotoxicity studies were carried out on the H929 multiple myeloma tumor line.
The cells are distributed onto microplates and exposed to the test compounds for 48 hours. The cell viability is then quantified by a colorimetric assay, the Microculture Tetrazolium Assay (Carmichael et al, Cancer Res. 1987, 47, 939-942).
The results are expressed in C50 which means concentration corresponding to […] of effect/inhibition.

Mcl-1 protein = Mcl-1 protein (UniProtKB Q07820) (Homo sapiens (Human), UniProt Q07820); assay: Inhibition of Mcl-1 by the fluorescence polarisation assay (Example A, Method A); type: binding; settings: fluorescence polarization assay
Mcl-1 protein, sequence (Q07820 whole entry): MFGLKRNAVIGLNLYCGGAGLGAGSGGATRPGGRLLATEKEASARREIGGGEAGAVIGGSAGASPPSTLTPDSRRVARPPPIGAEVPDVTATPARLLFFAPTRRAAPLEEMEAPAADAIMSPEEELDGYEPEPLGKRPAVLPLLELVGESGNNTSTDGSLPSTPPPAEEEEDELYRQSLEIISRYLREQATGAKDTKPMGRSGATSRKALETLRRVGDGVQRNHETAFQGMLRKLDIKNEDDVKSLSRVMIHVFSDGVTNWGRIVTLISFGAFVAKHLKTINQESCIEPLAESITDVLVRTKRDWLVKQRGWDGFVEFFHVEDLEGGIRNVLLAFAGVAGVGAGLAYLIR
Summary of the method: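 Protein (5 nM) and fluorescein-tagged peptide tracer (1 nM) incubated with 11-point compound series for 2 h at room temperature in HEPES/NaCl/Tween 20 buffer, pH 7.4, 5% DMSO. Displacement read as decrease in polarisation; IC50 fitted by 4-parameter logistic, converted to Ki (cKi or eKi).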

Structure (SMILES)	Ki [1] [nM]	IC50 [2] [nM]	IC50 ([2]; Homo sapiens, NCI-H929, 48 h) [nM]	Ki (Mcl-1 protein) [nM]
CC(O)c1ccc2c(c1)[C@]1(CC[C@@](Nc3cccc(Cl)c3)(C(=O)O)CC1)[C@@H](C[C@@H](C)COc1ccnc3c1[C@H](C)CC[C@H]3F)C2 (single isomer, unassigned) [Example 863]	0.382	76.7	–	–
C[C@@H](COc1ccnc2c1[C@H](C)CCC2)CC1=Cc2c(F)c(F)ccc2[C@]12CC[C@@](Nc1cccc(Cl)c1)(C(=O)O)CC2 [Example 744, (1r,4R)-4-(3-chloroanilino)-4′,5′-difluoro-2′-[(2R)-2-methyl-3-{[(5R)-5-methyl-5,6,7,8-tetrahydroquinolin-4-yl]oxy}propyl]spiro[cyclohexane-1,1′-indene]-4-carboxylic acid]	0.342	–	65.2	–
C[C@@H](COc1ccnc2c1[C@@H](C)CC[C@@H]2O)C[C@H]1Cc2ccccc2[C@]12CC[C@@](Nc1cccc(Cl)c1)(C(=O)O)CC2 [Example 675, (1r,2′S,4S)-4-(3-chloroanilino)-2′-[(2R)-3-{[(5S,8S)-8-hydroxy-5-methyl-5,6,7,8-tetrahydroquinolin-4-yl]oxy}-2-methylpropyl]-2′,3′-dihydrospiro[cyclohexane-1,1′-indene]-4-carboxylic acid]	29.9	–	6980	–
C[C@@H](COc1ncnc2c1[C@H](C)CC2)CC1Cc2ccccc2[C@]12CC[C@@](Nc1cccc(Cl)c1)(C(=O)O)CC2 (stereo partly drawn) [Example 597, (1r,4R)-4-(3-chloroanilino)-2′-[(2R)-2-methyl-3-{[(5R)-5-methyl-6,7-dihydro-5H-cyclopenta[d]pyrimidin-4-yl]oxy}propyl]-2′,3′-dihydrospiro[cyclohexane-1,1′-indene]-4-carboxylic acid]	5.36	–	1310	–
CC(O)c1ccc2c(c1)[C@]1(CC[C@@](Nc3cccc(Cl)c3)(C(=O)O)CC1)[C@@H](C[C@@H](C)COc1ccnc3c1[C@H](C)CC[C@H]3O)C2 (single isomer, unassigned) [Example 861]	0.0909	–	56.3	–
C[C@@H](COc1ccnc2c1[C@H](C)CCC2)CC1Cc2c(Cl)cccc2[C@]12CC[C@@](Nc1cccc(Cl)c1)(C(=O)O)CC2 (single isomer, unassigned) [Example 741]	1.58	132	–	–
Cc1c(OC[C@H](C)C[C@H]2Cc3ccccc3[C@]23CC[C@@](Nc2cccc(Cl)c2)(C(=O)O)CC3)ccnc1CO [Example 586, (1r,2′S,4S)-4-(3-chloroanilino)-2′-[(2R)-3-{[2-(hydroxymethyl)-3-methylpyridin-4-yl]oxy}-2-methylpropyl]-2′,3′-dihydrospiro[cyclohexane-1,1′-indene]-4-carboxylic acid]	2.62	–	1610	–
C[C@@H](COc1ccnc2c1[C@H](C)CCC2)C[C@H]1Cc2ccccc2[C@]12CC[C@@](Nc1cccc(Cl)c1F)(C(=O)O)CC2 [Example 706, (1r,2′S,4S)-4-(3-chloro-2-fluoroanilino)-2′-[(2R)-2-methyl-3-{[(5R)-5-methyl-5,6,7,8-tetrahydroquinolin-4-yl]oxy}propyl]-2′,3′-dihydrospiro[cyclohexane-1,1′-indene]-4-carboxylic acid]	0.901	–	93.9	–
C[C@@H](COc1ccnc2c1[C@H](C)C(F)(F)CC2)C[C@H]1Cc2ccccc2[C@]12CC[C@@](Nc1cccc(Cl)c1)(C(=O)O)CC2 [Example 700, (1r,2′S,4S)-4-(3-chloroanilino)-2′-[(2R)-3-{[(5S)-6,6-difluoro-5-methyl-5,6,7,8-tetrahydroquinolin-4-yl]oxy}-2-methylpropyl]-2′,3′-dihydrospiro[cyclohexane-1,1′-indene]-4-carboxylic acid]	5.09	–	330	–
C[C@@H](COc1ccnc2c1[C@H](C)CCC2(F)F)C[C@H]1Cc2ccccc2[C@]12CC[C@@](Nc1cccc(Cl)c1)(C(=O)O)CC2 [Example 692, (1r,2′S,4S)-4-(3-chloroanilino)-2′-[(2R)-3-{[(5R)-8,8-difluoro-5-methyl-5,6,7,8-tetrahydroquinolin-4-yl]oxy}-2-methylpropyl]-2′,3′-dihydrospiro[cyclohexane-1,1′-indene]-4-carboxylic acid]	1.75	–	132	–
C[C@@H](COc1ccnc2c1[C@H](C)CCC2)C[C@@H]1Cc2cc(F)ccc2[C@]12CC[C@@](Nc1cccc(Cl)c1)(C(=O)O)CC2 [Example 769, (1r,2′R,4R)-4-(3-chloroanilino)-5′-fluoro-2′-[(2R)-2-methyl-3-{[(5R)-5-methyl-5,6,7,8-tetrahydroquinolin-4-yl]oxy}propyl]-2′,3′-dihydrospiro[cyclohexane-1,1′-indene]-4-carboxylic acid]	1.52	–	125	–
C[C@@H](COc1cccnc1)C[C@H]1Cc2ccccc2[C@]12CC[C@@](Nc1cccc(Cl)c1)(C(=O)O)CC2 [Example 568, (1r,2′S,4S)-4-(3-chloroanilino)-2′-{(2R)-2-methyl-3-[(pyridin-3-yl)oxy]propyl}-2′,3′-dihydrospiro[cyclohexane-1,1′-indene]-4-carboxylic acid]	–	–	18300	438
Cc1c[nH]c2cccc(OCCC[C@@H]3Cc4ccccc4[C@]34CC[C@@](Nc3cccc(Cl)c3)(C(=O)O)CC4)c12 [Example 483, (1r,2′R,4R)-4-(3-chloroanilino)-2′-{3-[(3-methyl-1H-indol-4-yl)oxy]propyl}-2′,3′-dihydrospiro[cyclohexane-1,1′-indene]-4-carboxylic acid]	–	–	4170	174
O=C(O)[C@]1(Nc2cccc(Cl)c2)CC[C@@]2(CC1)c1ccccc1C[C@@H]2CCCOc1ccnc2ccsc12 [Example 440, (1r,2′S,4S)-4-(3-chloroanilino)-2′-{3-[(thieno[3,2-b]pyridin-7-yl)oxy]propyl}-2′,3′-dihydrospiro[cyclohexane-1,1′-indene]-4-carboxylic acid]	–	–	3480	47
O=C(O)[C@]1(Nc2cccc(Cl)c2)CC[C@@]2(CC1)c1ccccc1CC2CCCOc1ccnc2ccccc12 (stereo partly drawn) [Example 444, (1r,4r)-4-(3-chloroanilino)-2′-{3-[(quinolin-4-yl)oxy]propyl}-2′,3′-dihydrospiro[cyclohexane-1,1′-indene]-4-carboxylic acid]	–	–	5440	85.2
O=C(O)[C@]1(Nc2cccc(Cl)c2)CC[C@@]2(CC1)c1ccccc1C[C@H]2c1cccc(Oc2ccccc2)c1 [Example 323, (1r,2′S,4S)-4-(3-chloroanilino)-2′-(3-phenoxyphenyl)-2′,3′-dihydrospiro[cyclohexane-1,1′-indene]-4-carboxylic acid]	–	–	10500	106
O=C(O)[C@]1(Nc2cccc(Cl)c2)CC[C@@]2(CC1)c1ccccc1C[C@@H]2C[C@H](COc1cccnc1)c1ccccc1 [Example 551, (1r,2′S,4S)-4-(3-chloroanilino)-2′-{(2S)-2-phenyl-3-[(pyridin-3-yl)oxy]propyl}-2′,3′-dihydrospiro[cyclohexane-1,1′-indene]-4-carboxylic acid]	–	–	15900	607
CC(C)C(COc1ccncc1)CC1Cc2ccccc2[C@]12CC[C@@](Nc1cccc(Cl)c1)(C(=O)O)CC2 (single isomer, unassigned) [Example 535, (1r,4r)-4-(3-chloroanilino)-2′-(3-methyl-2-{[(pyridin-4-yl)oxy]methyl}butyl)-2′,3′-dihydrospiro[cyclohexane-1,1′-indene]-4-carboxylic acid]	–	30000	–	2280
